Like-named read-outs stand apart in the source and are kept apart here.
How the values were obtained:
[1] = target: T1, PI3Kalpha (PIK3CA/PIK3R1, p110 alpha/p85 alpha) (Homo sapiens, UniProt P42336); assay: Adapta universal kinase assay, inhibition of PI3Kalpha (Example B); format: biochemical
T1 construct: recombinant human, full length, N-terminal His-tagged phosphoinositide-3-kinase catalytic subunit alpha polypeptide; His (N); purchased Invitrogen Corp. PV4788; host or cells: insect cells
Text: In contrast to ATP depletion assays, the Adapta™ assay is extremely sensitive to ADP formation such that a majority of the signal change occurs in the first 10-20% conversion of ATP to ADP. This makes the Adapta™ universal kinase assay ideally suited for use with low activity kinases.
The principle of the Adapta™ universal kinase assay is outlined below. The assay itself can be divided into two phases: a kinase reaction phase, and an ADP detection phase. In the kinase reaction phase, all components required for the kinase reaction are added to the well, and the reaction is allowed to incubate for 60 minutes. After the reaction, a detection solution consisting of a europium labeled anti-ADP antibody, an Alexa Fluor® 647 labeled ADP tracer, and EDTA (to stop the kinase reaction) is added to the assay well. ADP formed by the kinase reaction (in the absence of an inhibitor) will displace the Alexa Fluor® 647 labeled ADP tracer from the antibody, resulting in a decrease in the TR-FRET signal.
ADP formation is determined by calculating the emission ratio from the assay well. The emission ratio is calculated by dividing the intensity of the tracer (acceptor) emission by the intensity of the Eu (donor) emission at 615 nm as shown in the equation below.
Since the Adapta™ technology measures ADP formation (i.e. conversion of ATP to ADP) it can be used to measure any type of ATP hydrolysis, including intrinsic ATPase activity of kinases. In this case, the substrate is water, not a lipid or peptide (Kashem, et al., 2007, J. Biomol. Screen. 12, 1, 70-83).
The combination of recombinant human, full length, N-terminal His-tagged phosphoinositide-3-kinase catalytic subunit alpha polypeptide ([…], PI3Kalpha), expressed in and purified from insect cells along with co-expressed recombinant, full length, untagged phosphoinositide-3-kinase regulatory subunit 1 (p85 alpha) (combination also known as PIK3CA/PIK3R1; Invitrogen Corp. Cat # PV4788) was used as the enzyme for this assay.
The test compounds are screened at 1% DMSO (final) in the well. […] The PIP2:PS Substrate/Kinase Mixture was diluted 2× to working concentration in Kinase Buffer containing 50 mM HEPES pH 7.5, 0.1% CHAPS, and 1 mM EGTA. […] The Detection Mix was prepared in TR-FRET Dilution Buffer.
After the 1 hour Kinase Reaction incubation at room temperature, 5 μL of Detection Mix was added, followed by another 30 sec plate shake to ensure mixing, and the Detection Mix was allowed to equilibrate for 1 hour at room temperature.
Lipid substrates are prepared by creating lipid vesicles. In some cases, these vesicles include a carrier lipid, such as phosphatidylserine (PS). In the assay conditions section above, “PIP2:PS” refers to large unilamellar vesicles (LUVs) containing five mole percent L-α-Phosphatidylinositol-4,5-bisphosphate (PIP2) and ninety-five percent phosphatidylserine (PS), and the concentration listed refers only to the PIP2 substrate, not the PS carrier lipid.

mTOR = mTOR (Homo sapiens, UniProt P42345); assay: Z-Lyte biochemical assay, inhibition of mTOR (Example A);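 further: synthetic Ser/Thr peptide with coumarin–fluorescein FRET pair, phosphorylation protects from protease cleavage, coumarin/fluorescein emission ratio after 400 nm excitation, 1 h kinase reaction, 10-point 3-fold titrations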
mTOR, sequence (P42345 1360-2549): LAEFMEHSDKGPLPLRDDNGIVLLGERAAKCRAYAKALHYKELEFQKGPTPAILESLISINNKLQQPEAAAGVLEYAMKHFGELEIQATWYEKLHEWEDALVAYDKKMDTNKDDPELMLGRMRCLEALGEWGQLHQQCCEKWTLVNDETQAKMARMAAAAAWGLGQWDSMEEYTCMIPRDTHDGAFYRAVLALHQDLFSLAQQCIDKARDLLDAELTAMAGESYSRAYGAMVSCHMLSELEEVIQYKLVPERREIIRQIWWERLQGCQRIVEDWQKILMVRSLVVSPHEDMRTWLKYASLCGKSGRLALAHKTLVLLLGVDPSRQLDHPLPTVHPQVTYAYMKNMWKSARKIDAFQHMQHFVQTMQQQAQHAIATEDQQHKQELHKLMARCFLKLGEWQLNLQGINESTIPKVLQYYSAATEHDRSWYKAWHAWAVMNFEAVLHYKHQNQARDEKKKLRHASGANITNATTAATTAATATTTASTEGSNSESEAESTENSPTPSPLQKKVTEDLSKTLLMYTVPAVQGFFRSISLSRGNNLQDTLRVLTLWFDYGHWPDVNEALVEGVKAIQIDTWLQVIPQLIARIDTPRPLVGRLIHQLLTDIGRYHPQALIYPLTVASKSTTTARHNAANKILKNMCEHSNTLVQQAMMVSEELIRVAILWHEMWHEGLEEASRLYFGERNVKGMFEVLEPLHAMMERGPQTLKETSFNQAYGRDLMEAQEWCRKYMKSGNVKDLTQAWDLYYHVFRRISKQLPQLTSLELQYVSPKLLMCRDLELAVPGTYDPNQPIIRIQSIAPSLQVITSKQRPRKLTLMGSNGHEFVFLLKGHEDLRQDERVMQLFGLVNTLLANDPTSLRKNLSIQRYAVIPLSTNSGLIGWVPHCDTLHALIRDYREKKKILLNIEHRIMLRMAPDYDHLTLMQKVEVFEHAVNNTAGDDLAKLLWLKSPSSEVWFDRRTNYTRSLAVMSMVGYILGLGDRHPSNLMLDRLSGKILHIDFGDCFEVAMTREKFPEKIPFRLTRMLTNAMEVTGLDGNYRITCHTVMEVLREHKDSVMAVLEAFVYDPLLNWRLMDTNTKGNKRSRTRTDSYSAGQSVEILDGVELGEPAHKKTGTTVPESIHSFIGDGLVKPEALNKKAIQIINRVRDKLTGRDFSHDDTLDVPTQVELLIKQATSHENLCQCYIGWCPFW
Description: The inhibitory property of a compound relative to mTOR catalysis was determined by using the Z-Lyte™ biochemical assay conducted by Invitrogen Corporation (Madison, Wis.), which employs a fluorescence-based, coupled-enzyme format and is based on the differential sensitivity of phosphorylated and non-phosphorylated peptides to proteolytic cleavage. The peptide substrate is labeled with two fluorophores—one at each end—that make up a FRET pair.
In the primary reaction, the kinase transfers the gamma-phosphate of ATP to a single tyrosine, serine or threonine residue in a synthetic FRET-peptide. In the secondary reaction, a site-specific protease recognizes and cleaves non-phosphorylated FRET-peptides. Phosphorylation of FRET-peptides suppresses cleavage by the Development Reagent. Cleavage disrupts FRET between the donor (i.e., coumarin) and acceptor (i.e., fluorescein) fluorophores on the FRET-peptide, whereas uncleaved, phosphorylated FRET-peptides maintain FRET. A ratio metric method, which calculates the ratio (the Emission Ratio) of donor emission to acceptor emission after excitation of the donor fluorophore at 400 nm, is used to quantitate reaction progress, as shown in the equation below.
A significant benefit of this ratio metric method for quantitating reaction progress is the elimination of well-to-well variations in FRET-peptide concentration and signal intensities. […] Both cleaved and uncleaved FRET-peptides contribute to the fluorescence signals and therefore to the Emission Ratio. The extent of phosphorylation of the FRET-peptide can be calculated from the Emission Ratio.
Recombinant human mTOR enzyme (amino acids 1360-2549), GST-tagged, expressed in and purified from insect cells (Invitrogen Corp. Cat. #PV4753; also known as FRAP1) was used for the assay. The 2×FRAP1 (mTOR)/Ser/Thr 11 Peptide Mixture (Invitrogen Corp.) was prepared in buffer containing 50 mM HEPES pH 7.5, 0.01% BRIJ-35, 10 mM MnCl2, 1 mM EGTA, 2 mM DTT, and 0.02% NaN3. The final 10 μL Kinase Reaction consisted of 7.2-58.1 ng FRAP1 (mTOR) and 2 μM Ser/Thr 11 Peptide in buffer containing 50 mM HEPES pH 7.5, 0.01% BRIJ-35, 5 mM MgCl2, 5 mM MnCl2, 1 mM EGTA, 1 mM DTT, and 0.01% NaN3.
Test compounds are screened in 1% DMSO (final) in the well. For 10 point titrations, 3-fold serial dilutions are conducted from the starting concentration. The Ser/Thr 11 Peptide/Kinase Mixture was diluted to a 2× working concentration in buffer containing 50 mM HEPES pH 7.5, 0.01% BRIJ-35, 10 mM MnCl2, 1 mM EGTA, 2 mM DTT, and 0.02% NaN3. The ATP solution was diluted to a 4× working concentration in buffer containing 50 mM HEPES pH 7.5, 0.01% BRIJ-35, 10 mM MgCl2, and 1 mM EGTA.
After the 1 hour Kinase Reaction incubation, 5 μL of a 1:16 dilution of Development Reagent B was added, and the development reaction was allowed to proceed for an additional 1 hour at room temperature. The assay plate was then read on a fluorescence plate reader and the data analyzed as outlined above.
IC50 values were calculated by non-linear least squares curve fitting using XLfit from IDBS to fit the results to model number 205 (sigmoidal dose-response model).

[2] = Table 1, 25 μM ATP, read-out: IC50 (nM) PI3Kα
[3] = IC50 (nM) mTOR, Table 1, 10 μM ATP

T1 sequence (P42336 whole entry): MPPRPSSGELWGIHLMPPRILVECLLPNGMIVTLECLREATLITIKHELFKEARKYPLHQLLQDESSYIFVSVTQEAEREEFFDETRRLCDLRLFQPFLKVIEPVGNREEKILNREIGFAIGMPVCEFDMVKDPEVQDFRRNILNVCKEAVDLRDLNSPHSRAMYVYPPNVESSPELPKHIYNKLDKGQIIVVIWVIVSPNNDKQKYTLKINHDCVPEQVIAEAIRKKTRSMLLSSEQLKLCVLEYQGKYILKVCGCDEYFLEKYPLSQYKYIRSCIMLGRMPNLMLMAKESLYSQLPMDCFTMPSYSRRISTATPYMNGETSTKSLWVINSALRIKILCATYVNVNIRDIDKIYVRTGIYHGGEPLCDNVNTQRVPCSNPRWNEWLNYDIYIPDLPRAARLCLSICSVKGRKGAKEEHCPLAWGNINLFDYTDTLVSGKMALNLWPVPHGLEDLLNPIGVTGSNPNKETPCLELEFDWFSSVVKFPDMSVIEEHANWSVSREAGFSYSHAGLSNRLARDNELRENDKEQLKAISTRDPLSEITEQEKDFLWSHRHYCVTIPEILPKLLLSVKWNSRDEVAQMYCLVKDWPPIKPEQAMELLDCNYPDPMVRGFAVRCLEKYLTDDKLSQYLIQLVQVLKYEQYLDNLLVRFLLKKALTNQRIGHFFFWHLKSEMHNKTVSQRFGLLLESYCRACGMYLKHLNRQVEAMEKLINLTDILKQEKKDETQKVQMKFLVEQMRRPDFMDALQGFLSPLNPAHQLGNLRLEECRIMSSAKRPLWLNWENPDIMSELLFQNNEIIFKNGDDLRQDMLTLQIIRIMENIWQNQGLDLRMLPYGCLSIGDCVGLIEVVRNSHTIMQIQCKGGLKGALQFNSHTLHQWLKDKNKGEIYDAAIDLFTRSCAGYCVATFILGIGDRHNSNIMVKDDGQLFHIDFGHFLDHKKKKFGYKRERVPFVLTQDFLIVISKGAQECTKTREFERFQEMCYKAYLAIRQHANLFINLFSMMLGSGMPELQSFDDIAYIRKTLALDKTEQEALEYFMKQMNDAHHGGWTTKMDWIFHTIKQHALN
T1 sequence (P27986 whole entry partner): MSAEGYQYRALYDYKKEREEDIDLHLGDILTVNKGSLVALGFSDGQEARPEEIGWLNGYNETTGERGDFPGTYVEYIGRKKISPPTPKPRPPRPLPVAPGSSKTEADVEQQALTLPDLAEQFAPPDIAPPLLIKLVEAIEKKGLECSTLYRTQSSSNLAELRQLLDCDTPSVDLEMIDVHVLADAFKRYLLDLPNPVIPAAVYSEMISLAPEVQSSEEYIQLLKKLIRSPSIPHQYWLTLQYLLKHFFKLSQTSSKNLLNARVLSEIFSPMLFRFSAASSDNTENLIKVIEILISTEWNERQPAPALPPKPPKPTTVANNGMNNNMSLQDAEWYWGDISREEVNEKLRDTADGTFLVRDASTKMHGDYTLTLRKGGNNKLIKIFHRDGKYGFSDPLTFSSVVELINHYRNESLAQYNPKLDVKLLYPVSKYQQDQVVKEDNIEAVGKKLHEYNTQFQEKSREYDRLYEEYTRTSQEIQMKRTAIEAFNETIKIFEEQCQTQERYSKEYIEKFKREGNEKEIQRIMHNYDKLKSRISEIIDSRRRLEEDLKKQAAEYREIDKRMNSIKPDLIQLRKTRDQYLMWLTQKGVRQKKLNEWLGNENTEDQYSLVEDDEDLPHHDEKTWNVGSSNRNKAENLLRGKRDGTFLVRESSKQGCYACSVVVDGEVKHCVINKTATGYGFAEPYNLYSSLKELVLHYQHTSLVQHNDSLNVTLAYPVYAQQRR

Row | Structure (SMILES) | IC50 [1, 2] | IC50 (mTOR; [3]) | IC50 ([1]; exact value in text, read-out: IC50 value for PI3K) | IC50 (mTOR; IC50 value for mTOR, exact value in text)
1 | CC(=O)Nc1nc2ccc(-c3ccc4c(c3)NC(=O)CNC4=O)cc2s1 [Example 21, N-(6-(2,5-Dioxo-2,3,4,5-tetrahydro-1H-benzo[e][1,4]diazepin-8-yl)benzo[d]thiazol-2-yl)acetamide] | > 1000 nM | > 1000 nM | – | –
2 | CC(=O)Nc1nc2ccc(-c3ccc(S(C)(=O)=O)cc3)nc2s1 [Example 26, N-(5-(4-(Methylsulfonyl)phenyl)thiazolo[5,4-b]pyridine-2-yl)acetamide] | > 1000 nM | > 1000 nM | – | –
3 | CNS(=O)(=O)c1ccc(-c2ccc3nc(NC(C)=O)sc3n2)cc1 [Example 28, N-(5-(4-(N-Methylsulfamoyl)phenyl)thiazolo[5,4-b]pyridine-2-yl)acetamide] | > 1000 nM | > 1000 nM | – | –
4 | CC(=O)Nc1nc2ccc(-c3ccc(NS(C)(=O)=O)cc3)nc2s1 [Example 29, N-(5-(4-(Methylsulfonamido)phenyl)thiazolo[5,4-b]pyridin-2-yl)acetamide] | 100 to 1000 nM | 100 to 1000 nM | 310 nM | 790 nM
5 | CC(=O)Nc1nc2ccc(-c3cc(NS(C)(=O)=O)c4[nH]ccc4c3)cc2s1 [Example 32, N-(6-(7-(Methylsulfonamido)-1H-indol-5-yl)benzo[d]thiazol-2-yl)acetamide] | > 1000 nM | > 1000 nM | – | –
6 | CC(=O)Nc1cccc(-c2ccc3nc(NC(C)=O)sc3c2)c1 [Example 41, N-(3-(2-Acetamidobenzo[d]thiazol-6-yl)phenyl)acetamide] | > 1000 nM | > 1000 nM | – | –
